Our source for the IC50 values is US20230174526A1, “BENZOTHIAZOLYL BIARYL COMPOUND, AND PREPARATION METHOD AND USE” (SHANGHAI RINGENE BIOPHARMA CO., LTD., priority 2020, published 2023).

One assay has as its system NCI-H358 cells. Nature of the assay: Proliferation test method 2 (3D, Cell Titer Glo 3D), NCI-H358. The note with it: Homo sapiens, NCI-H358, 96 h, read-out: IC50 cell proliferation inhibitory activity against NCI-H358. The format is cell-based. The procedure:
(§1) Test method 2 (3D): The tumor cells in the logarithmic growth phase were diluted with culture solution to a certain concentration and inoculated on the 96-well plate on the ultra-low attachment surface, and the culture medium was 80 µL/well. Cells were incubated overnight at 37° C. in a humidity chamber. On the second day, a series of diluted test compounds (10 concentrations, 3 times dilution) were added to the plate, 20 µL/well, incubated in an incubator for 96h.The plates are removed and placed at room temperature and incubated with an equal volume of Cell Titer Glo®3D reagent for 1 h. The signal is detected by the En Vision™ plate reader. […] A four-parameter nonlinear regression curve was fitted to the percent inhibition for each concentration of the compound and the IC50 was calculated.

Assay [1] deals with MiaPaca-2 cells (pancreatic cancer). Nature of the assay: Proliferation test method 1 (2D, MTT), MiaPaca-2. The format is cell-based. The note with it: 5-7 days, read-out: IC50/nM proliferation inhibitory activity on MiaPaca-2 cells. The protocol:
(§2) Test method 1 (2D):NCI-H358 (lung cancer) and MiaPaca-2 cells (pancreatic cancer) cells (100 µL/well, 20,000 cells/mL) were inoculated in 96-well culture plates supplemented with 10% fetal bovine serum and 1% penicillin/streptomycin sulfate, respectively.Using 0.5% dimethyl sulfoxide as a blank control, cells were treated with a solution of the compound to be tested at a starting concentration of 10 µM, tripled diluted testing solution of the compound in eight gradients were used to treat cells, and then incubated in a 5% CO2 incubator for a certain period of time (5-7 days).At the end of incubation, 10 µL of MTT stock solution (5 mg/mL) was added to each well.The culture plates were incubated at 37° C. for 4 h and then the medium was removed.Dimethyl sulfoxide (100 µL) was added to each well and then shaken sufficiently. The absorbance of the product formazanwas measured at 570 nm on the Thermo Scientific Varioskan Flash multimode reader.IC50 values were obtained by fitting dose-response data into a three-parameter nonlinear regression model using GraphPad Prism 6.0 software.

The subject of another assay is MiaPaca-2 cells. Nature of the assay: Proliferation test method 2 (3D, Cell Titer Glo 3D), MiaPaca-2. The format is cell-based. The note with it: Homo sapiens, MIA PaCa-2, 96 h, read-out: IC50 cell proliferation inhibitory activity against MiaPaca-2. The procedure: as §1
The next assay deals with T1, KRAS^G12C/SOS1 (Homo sapiens, UniProt P01116, G12C).
T1 construct: purchased CisBio
Nature of the assay: KRAS^G12C/SOS1 protein-protein interaction Binding assay (CisBio kit). The note with it: class symbols. The procedure:
CisBio’s KRAS^G12C/SOS1 kit was used to test the efficacy of the compound on inhibiting the protein-protein interaction between SOS1 and KRAS^G12Cby Binding assay.Results were expressed as IC50values.
Test methods: (1) the test compound was tested at a concentration of 1000 nM. Diluted to 3-fold diluted compound of a 200-fold final concentration of 100% DMSO solution in a 384-well plate at 10 concentrations. 50 nL of 200-fold final concentration of compound was transferred to the destination plate 384 well plate using a dispenser Echo 550.50 nL of 100% DMSO was added to the negative control wells and positive control wells; (2) 4-fold final concentration of Tag1 SOS1 solution was prepared using Diluent buffer; (3) 2.5 µL of 4-fold final concentration of Tag1 SOS1 solution was added to the 384-well plate; (4) 4-fold final concentration of Tag2 KRAS^G12C solution was prepared using Diluent buffer; (5) 2.5 µL of 4-fold final concentration of Tag2 KRAS^G12C solution was added to compound wells and positive control wells, respectively; 2.5 µL of diluent buffer was added to negative control wells; (6) the 384-well plate was centrifuged at 1000 rpm for 30 seconds, shaken and mixed, and incubated at room temperature for 15 min; (7) 1-fold final concentration of Anti Tag1 TB3+ solution and 1-fold final concentration of Anti Tag2 XL665 solution were prepared with Detection buffer, and 5 µL of the mixture was added to each well after mixing the two solutions; (8) the 384-well plate was centrifuged at 1000 rpm for 30 seconds, shaken and mixed, and incubated at room temperature for 120 minutes; (9) the Envision enzyme marker was used to read
Em665/620; (10) data analysis, calculation formula; where Min signal is the mean value of negative control wells, Max signal is the mean value of positive control wells.The log value of concentration was used as the X-axis and the percentage inhibition as the Y-axis to fit the quantitative efficacy curve using the log(inhibitor) vs. response Variable slope of the quantitative efficacy curve of the analytical software GraphPad Prism 5 to derive the IC50 value of each compound on the enzyme activity.The fitting formula was: Y=Bottom+(Top Bottom)/(1+10^A((LogIC50X)^∗ HillSlope)).

The test system of assay [2] is NCI-H358 (lung cancer) cells. Nature of the assay: Proliferation test method 1 (2D, MTT), NCI-H358. The format is cell-based. Conditions: Homo sapiens, 5-7 days, read-out: IC50 proliferation inhibitory activity against NCI-H358. The procedure:
as §2

The subject of assay [3] is phosphorylated ERK levels of MiaPaca-2. The assay can be described thus: ERK phosphorylation (western blot), MiaPaca-2. The format is cell-based. Conditions: Homo sapiens, MIA PaCa-2, 24 h. The protocol: (§3) Test method 3 (ERK phosphorylation): Miapaca-2 or H358 cells were inoculated at certain concentrations in 96-well plates and incubated overnight at 37° C., 5% CO2 in a cell culture incubator, and serial dilutions of the test compound (5 concentrations, 3-fold dilution) were added to the plates the next day for 24 h (Miapaca-2) or 3 h (H358), then lysis solution containing protease and phosphatase inhibitor were added to lyse the cells to extract proteins and western blot method was used to detect the level of p-ERK.

The subject of assay [4] is phosphorylated ERK levels of NCI-H358. Nature of the assay: ERK phosphorylation (western blot), H358. The format is cell-based. Conditions: Homo sapiens, 3 h. The procedure:
as §3

Read-outs that look alike come from different tables or passages of the source.

T1 sequence (P01116 1-188 isoform P01116-2 G12C): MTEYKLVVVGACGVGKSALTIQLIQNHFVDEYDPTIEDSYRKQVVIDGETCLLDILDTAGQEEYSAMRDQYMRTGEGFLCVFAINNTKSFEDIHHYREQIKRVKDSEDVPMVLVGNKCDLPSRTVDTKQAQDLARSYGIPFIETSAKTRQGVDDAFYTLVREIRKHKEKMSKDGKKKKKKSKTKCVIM

For the molecule `C=CC(=O)N1CCN(c2nc(NC[C@@H]3CCCN3C)nc3c(F)c(-c4ccc(F)c5sc(N)nc45)c(Cl)cc23)CC1` [Example 2, 1-(4-(7-(2-Amino-7-Fluorobenzo[d]Thiazol-4-yl)-6-Chloro-8-Fluoro-2-((((S)-1-Methylpyrrolidin-2-yl)Methyl)Amino)Quinazolin-4-yl)Piperazin-1-yl)Prop-2-En-1-One], the IC50 was under 200 nM in the assay with NCI-H358 cells; 13.2 nM in assay [1] (Homo sapiens, MIA PaCa-2, 2D); under 200 nM with MiaPaca-2 cells; under 50 nM on KRAS^G12C/SOS1.
With `C=CC(=O)N1CCN(c2nc(OC[C@@H]3C[C@H](F)CN3C)nc3c(F)c(-c4ccc(F)c5sc(N)nc45)c(Cl)cc23)CC1` [Example 25], the IC50 in assay [2] is under 100 nM; at KRAS^G12C/SOS1, under 50 nM; in assay [3] it was under 500 nM; in assay [4], under 500 nM.
For the molecule `C=CC(=O)N1CCN(c2nc(OC[C@@H]3CCCN3C)nc3c(F)c(-c4ccc(F)c5sc(N)nc45)c(Cl)cc23)CC1CC#N` (stereo partly drawn) [Example 12, 2-(1-acryloyl-4-(7-(2-Amino-7-Fluorobenzo [d] Thiazol-4-yl) -6-Chloro-8-Fluoro-2-(((S)-1-Methylpyrrolidin-2-yl) Methoxy) Quinazolin-4-yl) Piperazin-2-yl) Acetonitrile], the IC50 is 19.3 nM in assay [1] (Homo sapiens, MIA PaCa-2, 2D) and 50 to 200 nM at KRAS^G12C/SOS1.
For `C=C(F)C(=O)N1CCN(c2c(C#N)cnc3c(F)c(-c4ccc(F)c5sc(N)nc45)c(Cl)cc23)CC1` [Example 9, 7-(2-Amino-7-Fluorobenzo [d] Thiazol-4-yl) -6-Chloro-8-Fluoro-4-(4-(2-Fluoroacryloyl) Piperazin-1-yl) Quinolin-3-Cyano], in that order: 362 nM and 50 to 200 nM.
As to `C=CC(=O)N1CCN(c2c(C#N)c(NCCC(=O)N(C)C)nc3c(F)c(-c4ccc(F)c5sc(N)nc45)c(Cl)cc23)CC1` [Example 22, 3-((4-(4-Acryloylpiperazin-1-yl)-7-(2-Amino-7-Fluorobenzo [d] Thiazol-4-yl)-6-Chloro-3-Cyano-8-Fluoroquinolin-2-yl) Amino)-N,N-Dimethylpropanamide], the IC50 was 0.93 nM in assay [1] (Homo sapiens, MIA PaCa-2, 2D) and 50 to 200 nM on KRAS^G12C/SOS1.
For `C=CC(=O)N1CCN(c2nc(Cl)nc3c(F)c(-c4ccc(F)c5sc(N)nc45)c(Cl)cc23)CC1` [Example 6, 1-(4-(7-(2-Amino-7-Fluorobenzo [d] Thiazol-4-yl)-2,6-Dichloro-8-Fluoroquinazolin-4-yl) Piperazin-1-yl) Prop-2-Ene-1-One], in that order: 35 nM and 50 to 200 nM.
With `C=CC(=O)N1CCN(c2c(C#N)cnc3c(F)c(-c4ccc(F)c5sc(N)nc45)c(Cl)cc23)C[C@H]1C` [Example 16, 4-((R)-4-Acryloyl-3-Methylpiperazin-1-yl)-7-(2-Amino-7-Fluorobenzo [d] Thiazol-4-yl)-6-Chloro-8-Fluoroquinolin-3 -Cyano], the IC50 in the assay with NCI-H358 cells was under 200 nM; in assay [2], under 100 nM; in the assay on MiaPaca-2 cells, under 200 nM; at KRAS^G12C/SOS1, 50 to 200 nM; in assay [3], under 500 nM; in assay [4], under 500 nM.
For `C=CC(=O)N1CCN(c2nc(OC[C@@H]3C[C@@H](F)CN3C)nc3c(F)c(-c4ccc(F)c5sc(N)nc45)c(Cl)cc23)CC1` [Example 27], the IC50 in assay [1] (2D) is under 1 nM; at KRAS^G12C/SOS1, under 50 nM.
On to `C=CC(=O)N1C[C@@H]2C(=O)N(C)c3cnc4c(F)c(-c5ccc(F)c6sc(N)nc56)c(Cl)cc4c3N2C[C@H]1C` (single isomer, unassigned) [Example 17-2], for which the IC50 in assay [1] (2D) worked out at 23.1 nM.
In the case of `C=CC(=O)N1CCN(c2c(C#N)cnc3c(F)c(-c4ccc(F)c5sc(N)nc45)c(Cl)cc23)CC1CC#N` (centres unmarked) [Example 15, 4-(4-Acryloyl-3-(Cyanomethyl) Piperazin-1-yl)-7-(2-Amino-7-Fluorobenzo [d] Thiazol-4-yl)-6-Chloro-8-Fluoroquinolin-3-Cyano], the IC50 was 390 nM in assay [1] (Homo sapiens, MIA PaCa-2, 2D) and 200 to 1000 nM on KRAS^G12C/SOS1.
The like results for `C=CC(=O)N1CCN(c2c(C#N)c(NC[C@@H]3CCCN3C)nc3c(F)c(-c4ccc(F)c5sc(N)nc45)c(Cl)cc23)CC1` [Example 4, 4-(4-Piperazinylacryloylpiperazin-1-yl)-7-(2-Amino-7-Fluorobenzo[d]Thiazol-4-Yl)-6-Chloro-8-Fluoro-2-((((S)-1-Methylpyrrolin-2-yl)Methyl)Amino)Quinoline-3-Cyano] were, in that order, 1.1 nM and under 50 nM.
For `C=C(F)C(=O)N1C[C@@H]2C(=O)N(C)c3cnc4c(F)c(-c5ccc(F)c6sc(N)nc56)c(Cl)cc4c3N2C[C@H]1C` [Example 28, (2R,4aR)-10-(2-Amino-7-Fluorobenzo[d]Thiazol-4-yl)-11-Chloro-9-Fluoro-3-(2-Fluoroacryloyl)-2,6-Dimethyl-2,3,4,4a-Tetrahydro-1H-Pyrazin [1′,2′:4,5] Pyrazin [2,3-c] Quinolin-5(6H)-one], in that order: 63.2 nM and 50 to 200 nM.
`C=CC(=O)N1CC2C(=O)N(C)c3cnc4c(F)c(-c5c(O)cccc5F)c(Cl)cc4c3N2CC1C` (single isomer, unassigned) [Comparative Compound 2-2, reference compound] showed an IC50 on KRAS^G12C/SOS1 of over 1000 nM.
`C=CC(=O)N1CCN(c2nc(OC[C@@H]3C[C@@H](O)CN3C)nc3c(F)c(-c4ccc(F)c5sc(N)nc45)c(Cl)cc23)CC1` [Example 24, 1-(4-(7-(2-Amino-7-Fluorobenzo[d]Thiazol-4-yl)-6-Chloro-8-Fluoro-2-(((2S,4R)-4-Hydroxy-1-Methylpyrrolin-2-yl) Methoxy) Quinazolin-4-yl) Piperazin-1-yl) Prop-2-En-1-One]: the IC50 in assay [1] (Homo sapiens, MIA PaCa-2, 2D) is under 1 nM; on KRAS^G12C/SOS1, under 50 nM.
For `C=CC(=O)N1CCN(c2nc(NCCC(=O)N(C)C)nc3c(F)c(-c4ccc(F)c5sc(N)nc45)c(Cl)cc23)CC1` [Example 19, 3-((4-(4-Acryloylpiperazin-1-yl)-7-(2-Amino-7-Fluorobenzo [d] Thiazol-4-yl)-6-Chloro-8-Fluoroquinazolin-2-yl) Amino)-N,N-Dimethylpropanamide], in that order: 28 nM and 50 to 200 nM.
For `C=CC(=O)N1CCN(c2c(C#N)c(Cl)nc3c(F)c(-c4ccc(F)c5sc(N)nc45)c(Cl)cc23)CC1` [Example 7], in that order: 23.1 nM and 50 to 200 nM.
